In ChEMBL document CHEMBL3351349, “Histone deacetylase inhibitors derived from 1,2,3,4-tetrahydropyrrolo[1,2-a]pyrazine and related heterocycles selective for the HDAC6 isoform” (Bioorg Med Chem Lett, 2014):

How the values were obtained:
[1] = molecular target: T1, Protein deacetylase HDAC6 (Homo sapiens, UniProt Q9UBN7); assay: Inhibition of recombinant N-GST-tagged HDAC6 (unknown origin) assessed as reduction in deacetylation of Ac-Arg-Gly-Lys(Ac)-AMC substrate by fluorescence assay
T1 sequence (Q9UBN7 whole entry): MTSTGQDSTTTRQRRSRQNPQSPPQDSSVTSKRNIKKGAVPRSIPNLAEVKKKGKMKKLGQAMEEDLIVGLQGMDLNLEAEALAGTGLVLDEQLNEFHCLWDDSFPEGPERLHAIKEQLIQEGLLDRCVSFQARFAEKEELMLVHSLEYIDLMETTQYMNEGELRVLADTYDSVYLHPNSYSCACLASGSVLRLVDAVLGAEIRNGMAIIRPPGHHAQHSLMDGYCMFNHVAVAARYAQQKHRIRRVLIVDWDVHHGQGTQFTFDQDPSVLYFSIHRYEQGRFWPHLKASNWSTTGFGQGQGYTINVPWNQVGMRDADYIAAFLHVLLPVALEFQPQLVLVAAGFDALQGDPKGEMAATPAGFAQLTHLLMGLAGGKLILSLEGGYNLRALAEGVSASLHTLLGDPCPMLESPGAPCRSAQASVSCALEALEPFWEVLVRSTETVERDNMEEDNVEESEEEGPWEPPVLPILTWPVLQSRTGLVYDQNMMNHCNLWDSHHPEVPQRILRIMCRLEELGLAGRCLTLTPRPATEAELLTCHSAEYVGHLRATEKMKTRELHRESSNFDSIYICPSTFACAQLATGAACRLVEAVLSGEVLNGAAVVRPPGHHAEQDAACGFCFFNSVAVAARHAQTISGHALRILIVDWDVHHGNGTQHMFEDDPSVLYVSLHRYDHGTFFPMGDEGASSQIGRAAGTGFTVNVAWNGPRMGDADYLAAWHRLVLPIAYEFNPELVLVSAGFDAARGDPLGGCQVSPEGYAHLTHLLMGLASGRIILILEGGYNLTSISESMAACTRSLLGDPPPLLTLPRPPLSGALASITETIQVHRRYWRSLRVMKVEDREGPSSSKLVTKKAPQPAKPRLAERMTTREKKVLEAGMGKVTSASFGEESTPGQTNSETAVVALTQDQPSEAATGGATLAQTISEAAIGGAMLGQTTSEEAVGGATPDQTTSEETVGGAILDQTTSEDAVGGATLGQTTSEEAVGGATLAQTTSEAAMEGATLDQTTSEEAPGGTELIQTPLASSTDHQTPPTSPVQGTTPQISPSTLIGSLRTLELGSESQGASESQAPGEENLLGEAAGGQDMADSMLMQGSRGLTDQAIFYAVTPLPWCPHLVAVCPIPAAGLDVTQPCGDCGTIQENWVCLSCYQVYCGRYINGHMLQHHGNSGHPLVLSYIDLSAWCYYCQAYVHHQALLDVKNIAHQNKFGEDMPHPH

HeLa = assay: Selectivity index, ratio of IC50 for HDAC1/HDAC2 in human HeLa cells nuclear extracts to IC50 for recombinant N-GST-tagged HDAC6 (unknown origin); assay type: cell-based
[2] = molecular target: Histone deacetylase (HDAC1 and HDAC2) (Homo sapiens) (UniProt Q13547+Q92769); assay: Inhibition of HDAC1/HDAC2 in human HeLa cells assessed as reduction in acetylated histone levels at 20 uM incubated for 24 hrs by immunofluorescence assay; assay type: cell-based
[3] = molecular target: T1, Protein deacetylase HDAC6; assay: Inhibition of HDAC6 in human HeLa cells assessed as reduction in K40 hyperacetylation of alpha-tubulin incubated for 6 hrs by immunofluorescence assay; assay type: cell-based
Histone deacetylase 1 = Histone deacetylase 1 (Homo sapiens, UniProt Q13547); assay: Inhibition of full length GST-tagged human HDAC1 using Arg-His-Lys-Lys(Ac) substrate incubated for 2 hrs by fluorescence assay
Histone deacetylase 2 = Histone deacetylase 2 (Homo sapiens, UniProt Q92769)
Histone deacetylase 3 = Histone deacetylase 3 (Homo sapiens, UniProt O15379); assay: Inhibition of full length C-terminal 6x-His tagged human HDAC3 using Arg-His-Lys-Lys(Ac) substrate incubated for 2 hrs by fluorescence assay
Histone deacetylase 4 = Histone deacetylase 4 (Homo sapiens, UniProt P56524)
Histone deacetylase 5 = Histone deacetylase 5 (Homo sapiens, UniProt Q9UQL6)
Histone deacetylase 8 = molecular target: T2, Histone deacetylase 8 (Homo sapiens, UniProt Q9BY41); assay: Inhibition of full length C-terminal 6x-His tagged human HDAC8 using Arg-His-Lys(Ac)-Lys(Ac) substrate incubated for 2 hrs by fluorescence assay
T2 sequence (Q9BY41 whole entry): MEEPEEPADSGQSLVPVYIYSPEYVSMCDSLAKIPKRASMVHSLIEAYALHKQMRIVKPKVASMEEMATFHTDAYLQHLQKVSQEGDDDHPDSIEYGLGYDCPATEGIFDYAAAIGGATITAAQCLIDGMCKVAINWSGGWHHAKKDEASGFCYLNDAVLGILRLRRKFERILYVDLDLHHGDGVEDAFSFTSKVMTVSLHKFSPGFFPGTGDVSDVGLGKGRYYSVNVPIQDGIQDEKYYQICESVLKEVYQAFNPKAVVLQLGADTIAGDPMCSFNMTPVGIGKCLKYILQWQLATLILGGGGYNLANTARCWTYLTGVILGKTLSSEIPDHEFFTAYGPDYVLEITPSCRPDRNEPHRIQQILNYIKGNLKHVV

[4] = molecular target: T3, Polyamine deacetylase HDAC10 (Homo sapiens, UniProt Q969S8); assay: Inhibition of N-terminal GST-tagged human HDAC10 (1 to 481 residues) using Arg-His-Lys-Lys(Ac) substrate incubated for 2 hrs by fluorescence assay
T3 sequence (Q969S8 whole entry): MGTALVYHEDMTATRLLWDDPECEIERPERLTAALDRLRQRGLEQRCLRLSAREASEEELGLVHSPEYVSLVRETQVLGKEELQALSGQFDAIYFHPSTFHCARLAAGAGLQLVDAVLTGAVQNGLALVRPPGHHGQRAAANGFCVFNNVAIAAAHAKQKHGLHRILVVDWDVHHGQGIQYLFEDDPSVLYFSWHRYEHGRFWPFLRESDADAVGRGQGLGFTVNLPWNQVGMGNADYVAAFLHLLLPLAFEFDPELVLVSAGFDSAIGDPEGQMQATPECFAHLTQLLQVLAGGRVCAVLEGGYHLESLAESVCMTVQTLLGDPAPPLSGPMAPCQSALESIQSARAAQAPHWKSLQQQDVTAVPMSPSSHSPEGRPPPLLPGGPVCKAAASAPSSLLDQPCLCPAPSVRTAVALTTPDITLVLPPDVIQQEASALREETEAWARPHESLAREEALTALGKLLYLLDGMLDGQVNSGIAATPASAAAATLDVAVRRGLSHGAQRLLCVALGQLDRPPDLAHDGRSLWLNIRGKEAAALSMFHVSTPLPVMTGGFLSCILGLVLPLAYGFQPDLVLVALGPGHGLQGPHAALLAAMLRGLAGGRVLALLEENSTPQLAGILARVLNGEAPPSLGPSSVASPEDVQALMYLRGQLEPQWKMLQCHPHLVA

Histone deacetylase 11 = molecular target: T4, Histone deacetylase 11 (Homo sapiens, UniProt Q96DB2); assay: Inhibition of full length N-terminal GST-tagged human HDAC11 using Arg-His-Lys-Lys(Ac) substrate incubated for 2 hrs by fluorescence assay
T4 sequence (Q96DB2 whole entry): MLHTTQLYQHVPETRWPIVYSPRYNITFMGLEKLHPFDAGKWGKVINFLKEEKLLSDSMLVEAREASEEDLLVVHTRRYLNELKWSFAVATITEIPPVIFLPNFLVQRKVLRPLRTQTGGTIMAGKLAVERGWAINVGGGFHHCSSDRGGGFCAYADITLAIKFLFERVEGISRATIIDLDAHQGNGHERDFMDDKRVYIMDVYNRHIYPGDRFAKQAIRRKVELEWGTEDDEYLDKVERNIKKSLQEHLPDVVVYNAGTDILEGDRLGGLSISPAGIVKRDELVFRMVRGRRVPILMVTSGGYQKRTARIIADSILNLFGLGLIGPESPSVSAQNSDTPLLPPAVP

[5] = Aqueous solubility in pH 6.8 buffer solution; assay type: physicochemical
[6] = Permeability in human Caco2 cells at pH 7.4; assay type: ADME, cell-based; settings: Caco-2, pH 7.4, read-out: permeability

Sequence of Histone deacetylase (HDAC1 and HDAC2) (Homo sapiens) (Q13547 whole entry, looked up): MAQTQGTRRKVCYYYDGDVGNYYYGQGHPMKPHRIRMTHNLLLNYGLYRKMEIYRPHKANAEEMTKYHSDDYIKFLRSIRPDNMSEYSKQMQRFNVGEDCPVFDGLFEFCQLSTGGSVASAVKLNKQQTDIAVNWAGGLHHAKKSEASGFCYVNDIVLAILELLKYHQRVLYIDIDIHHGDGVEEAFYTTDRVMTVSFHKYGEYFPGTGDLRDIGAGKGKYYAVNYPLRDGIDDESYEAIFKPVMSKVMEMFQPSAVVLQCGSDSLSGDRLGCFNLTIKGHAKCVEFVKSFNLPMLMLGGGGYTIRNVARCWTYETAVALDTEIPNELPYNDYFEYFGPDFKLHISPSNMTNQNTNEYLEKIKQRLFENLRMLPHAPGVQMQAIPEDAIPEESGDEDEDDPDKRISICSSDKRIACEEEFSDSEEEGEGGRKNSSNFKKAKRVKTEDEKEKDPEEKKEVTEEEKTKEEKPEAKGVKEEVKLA
Sequence of Histone deacetylase (HDAC1 and HDAC2) (Homo sapiens) (Q92769 whole entry, looked up): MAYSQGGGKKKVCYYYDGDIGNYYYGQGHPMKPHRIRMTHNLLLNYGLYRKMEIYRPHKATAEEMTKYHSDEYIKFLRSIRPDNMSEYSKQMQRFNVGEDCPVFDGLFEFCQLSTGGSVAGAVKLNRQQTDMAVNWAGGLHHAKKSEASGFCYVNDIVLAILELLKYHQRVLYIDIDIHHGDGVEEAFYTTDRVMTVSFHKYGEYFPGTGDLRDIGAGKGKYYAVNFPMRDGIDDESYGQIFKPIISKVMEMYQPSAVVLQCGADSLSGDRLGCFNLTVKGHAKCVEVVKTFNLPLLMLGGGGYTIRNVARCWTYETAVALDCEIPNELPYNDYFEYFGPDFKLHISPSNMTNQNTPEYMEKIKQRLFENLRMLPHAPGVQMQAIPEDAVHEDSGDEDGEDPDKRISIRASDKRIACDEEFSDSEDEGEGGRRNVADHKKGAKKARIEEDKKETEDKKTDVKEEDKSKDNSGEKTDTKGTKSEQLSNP
Sequence of Histone deacetylase 4 (P56524 whole entry): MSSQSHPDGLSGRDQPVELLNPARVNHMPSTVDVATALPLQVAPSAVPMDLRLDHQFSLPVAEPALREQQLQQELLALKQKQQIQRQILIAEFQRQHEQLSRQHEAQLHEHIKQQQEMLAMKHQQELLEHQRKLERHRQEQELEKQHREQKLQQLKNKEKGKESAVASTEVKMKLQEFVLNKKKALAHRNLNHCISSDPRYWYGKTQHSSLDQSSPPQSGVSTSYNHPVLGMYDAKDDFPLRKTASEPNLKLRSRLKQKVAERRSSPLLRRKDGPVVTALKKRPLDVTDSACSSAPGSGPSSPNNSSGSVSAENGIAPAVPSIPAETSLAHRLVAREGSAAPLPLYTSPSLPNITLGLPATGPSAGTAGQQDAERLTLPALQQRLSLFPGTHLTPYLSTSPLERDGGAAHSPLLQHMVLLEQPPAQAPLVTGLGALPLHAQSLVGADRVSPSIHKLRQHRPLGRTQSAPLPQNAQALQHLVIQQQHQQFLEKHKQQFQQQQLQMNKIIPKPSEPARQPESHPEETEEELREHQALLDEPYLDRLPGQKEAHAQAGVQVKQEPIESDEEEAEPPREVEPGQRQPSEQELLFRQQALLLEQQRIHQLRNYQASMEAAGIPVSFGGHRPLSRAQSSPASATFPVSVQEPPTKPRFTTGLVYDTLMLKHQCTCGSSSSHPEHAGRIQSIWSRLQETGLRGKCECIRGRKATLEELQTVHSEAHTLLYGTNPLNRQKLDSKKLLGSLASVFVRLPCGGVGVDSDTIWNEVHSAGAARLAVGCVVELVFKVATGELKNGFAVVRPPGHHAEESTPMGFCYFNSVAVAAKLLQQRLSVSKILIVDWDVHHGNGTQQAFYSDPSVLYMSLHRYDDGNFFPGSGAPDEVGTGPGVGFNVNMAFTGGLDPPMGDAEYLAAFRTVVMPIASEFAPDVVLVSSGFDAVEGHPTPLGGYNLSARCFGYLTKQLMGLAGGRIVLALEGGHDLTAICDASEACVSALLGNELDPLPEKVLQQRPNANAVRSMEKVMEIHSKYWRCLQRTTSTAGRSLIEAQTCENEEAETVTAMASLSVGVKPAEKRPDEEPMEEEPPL
Sequence of Histone deacetylase 1 (Q13547 whole entry): as the sequence (Q13547 whole entry, looked up) above
Sequence of Histone deacetylase 3 (O15379 whole entry): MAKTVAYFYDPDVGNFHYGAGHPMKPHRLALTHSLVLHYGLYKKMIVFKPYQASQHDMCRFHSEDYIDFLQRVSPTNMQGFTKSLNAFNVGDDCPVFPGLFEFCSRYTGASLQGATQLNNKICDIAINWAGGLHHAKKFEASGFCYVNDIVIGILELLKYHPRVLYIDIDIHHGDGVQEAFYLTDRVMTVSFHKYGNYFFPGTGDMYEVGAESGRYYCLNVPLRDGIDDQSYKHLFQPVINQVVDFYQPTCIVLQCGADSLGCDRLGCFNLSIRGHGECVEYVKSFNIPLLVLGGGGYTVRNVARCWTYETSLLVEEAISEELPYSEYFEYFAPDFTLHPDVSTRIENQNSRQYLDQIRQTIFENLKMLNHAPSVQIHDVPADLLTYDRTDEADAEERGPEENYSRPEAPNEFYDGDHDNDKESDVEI
Sequence of Histone deacetylase 2 (Q92769 whole entry): as the sequence (Q92769 whole entry, looked up) above
Sequence of Histone deacetylase 5 (Q9UQL6 whole entry): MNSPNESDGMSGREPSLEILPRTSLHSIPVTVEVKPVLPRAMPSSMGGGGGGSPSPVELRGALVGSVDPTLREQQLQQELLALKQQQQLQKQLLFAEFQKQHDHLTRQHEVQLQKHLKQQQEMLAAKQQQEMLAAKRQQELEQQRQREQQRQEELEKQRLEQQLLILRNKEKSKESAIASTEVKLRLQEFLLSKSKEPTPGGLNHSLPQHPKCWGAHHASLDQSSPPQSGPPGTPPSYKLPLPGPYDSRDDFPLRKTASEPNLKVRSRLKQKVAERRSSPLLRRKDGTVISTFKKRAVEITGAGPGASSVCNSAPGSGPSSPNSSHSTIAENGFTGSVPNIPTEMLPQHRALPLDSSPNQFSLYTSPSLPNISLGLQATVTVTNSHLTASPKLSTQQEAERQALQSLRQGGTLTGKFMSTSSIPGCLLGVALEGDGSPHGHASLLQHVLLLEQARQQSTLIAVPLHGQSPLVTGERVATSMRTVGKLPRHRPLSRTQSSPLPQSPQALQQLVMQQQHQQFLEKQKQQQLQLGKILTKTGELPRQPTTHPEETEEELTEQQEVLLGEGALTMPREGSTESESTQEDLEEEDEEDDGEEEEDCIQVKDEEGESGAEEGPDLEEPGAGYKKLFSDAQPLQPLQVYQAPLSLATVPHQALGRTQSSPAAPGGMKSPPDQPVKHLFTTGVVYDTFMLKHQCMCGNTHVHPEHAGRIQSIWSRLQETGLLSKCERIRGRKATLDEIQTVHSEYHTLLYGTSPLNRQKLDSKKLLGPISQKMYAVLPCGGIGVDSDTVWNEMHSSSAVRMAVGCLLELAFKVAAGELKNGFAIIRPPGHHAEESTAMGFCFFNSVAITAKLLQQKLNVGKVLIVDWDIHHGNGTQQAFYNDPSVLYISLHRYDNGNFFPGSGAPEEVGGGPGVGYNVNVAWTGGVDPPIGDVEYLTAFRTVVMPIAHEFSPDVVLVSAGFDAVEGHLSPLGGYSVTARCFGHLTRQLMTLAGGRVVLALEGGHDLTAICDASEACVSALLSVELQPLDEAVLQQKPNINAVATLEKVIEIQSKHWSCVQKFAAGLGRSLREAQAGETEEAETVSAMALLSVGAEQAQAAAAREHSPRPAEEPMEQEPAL

`COc1ccc(C(=O)N2CCn3nc(C(=O)NO)cc3C2)cc1` gave an IC50 [1] of 810 nM, a Ratio IC50 (HeLa) of 120 and an inhibition [2] of under 20%.

For `O=C(NO)c1cn2c(n1)CN(C(=O)c1cc3ccccc3s1)CC2`, the IC50 [1] was 64 nM, the Ratio IC50 (HeLa) was 52 and the inhibition [2] was under 20%.

Work on `Cn1cccc1C(=O)N1CCc2cc(C(=O)NO)ccc2C1` yielded a Ratio IC50 (HeLa) of 500 and an inhibition [2] of under 20%.

With `Cn1cccc1C(=O)N1CCn2cc(C(=O)NO)cc2C1` the IC50 [1] was 33 nM, the IC50 [3] was 69 nM and the inhibition [2] was under 20%. For the same compound, the IC50 (Histone deacetylase 1) was 15000 nM, the IC50 (Histone deacetylase 2) was 39000 nM and the IC50 (Histone deacetylase 3) was 8500 nM. It also gave an IC50 (Histone deacetylase 4) of over 50000 nM, an IC50 (Histone deacetylase 5) of 29000 nM and an IC50 (Histone deacetylase 8) of 3300 nM. It also gave an IC50 [4] of 41000 nM, an IC50 (Histone deacetylase 11) of 29000 nM and a solubility [5] of over 200 µM. It also gave a Papp [6] of 4.2 ×10⁻⁶ cm/s.

With `Cn1c(C(=O)N2CCn3cc(C(=O)NO)cc3C2)cc(Cl)c1Cl` the IC50 [1] was 33 nM, the Ratio IC50 (HeLa) was 100 and the IC50 [3] was 150 nM. For the same compound, the inhibition [2] was under 20%.

With `O=C(NO)c1cc2n(c1)CCN(C(=O)c1ccc(-c3ccccc3)cc1)C2` the IC50 [1] was 32 nM, the Ratio IC50 (HeLa) was 44 and the inhibition [2] was under 20%.

In the case of `COc1ccc(C(=O)N2CCn3cc(C(=O)NO)cc3C2)cc1`, the IC50 [1] is reported as 43 nM, the Ratio IC50 (HeLa) is reported as 130 and the IC50 [3] is reported as 100 nM. The inhibition [2] was under 20%.

`Cn1cccc1C(=O)NCc1ccc(C(=O)NO)cc1` gave a Ratio IC50 (HeLa) of 115 and an inhibition [2] of under 20%.

Work on `O=C(NO)c1cc2n(c1)CCN(C(=O)c1cccs1)C2` yielded an IC50 [1] of 110 nM, a Ratio IC50 (HeLa) of 150 and an inhibition [2] of under 20%.

Work on `Cn1cc(C(=O)N2CCn3cc(C(=O)NO)cc3C2)c2ccccc21` yielded an IC50 [1] of 190 nM, a Ratio IC50 (HeLa) of 6.3 and an inhibition [2] of under 20%.

In the case of `O=C(NO)c1cn2c(n1)CN(C(=O)c1ccc(-c3ccccc3)cc1)CC2`, the IC50 [1] is reported as 87 nM, the Ratio IC50 (HeLa) is reported as 70 and the IC50 [3] is reported as 2100 nM. The inhibition [2] was under 20%.

`O=C(NO)c1cc2n(c1)CCN(C(=O)C1CCCCC1)C2` gave an IC50 [1] of 100 nM, a Ratio IC50 (HeLa) of 250 and an IC50 [3] of 730 nM. For the same compound, the inhibition [2] was under 20%.

`O=C(NO)c1cc2n(c1)CCN(C(=O)c1cc3ccccc3[nH]1)C2` showed an IC50 [1] of 280 nM, a Ratio IC50 (HeLa) of 24 and an inhibition [2] of under 20%.

In the case of `Cn1c(C(=O)N2CCn3nc(C(=O)NO)cc3C2)cc2ccccc21`, the IC50 [1] is reported as 76 nM, the Ratio IC50 (HeLa) is reported as 66 and the IC50 [3] is reported as 3500 nM. The inhibition [2] was under 20%.

In the case of `Cn1cccc1C(=O)N1CCn2nc(C(=O)NO)cc2C1`, the IC50 [1] is reported as 350 nM, the Ratio IC50 (HeLa) is reported as 220 and the IC50 [3] is reported as 2200 nM. The inhibition [2] was under 20%.

`Cn1cccc1C(=O)N1CCn2cc(C(=O)NO)nc2C1` gave an IC50 [1] of 130 nM, a Ratio IC50 (HeLa) of 770 and an inhibition [2] of under 20%.

Work on `O=C(NO)c1cc2n(c1)CCN(C(=O)c1cc3ccccc3s1)C2` yielded an IC50 [1] of 39 nM, a Ratio IC50 (HeLa) of 14 and an inhibition [2] of under 20%.

For `Cn1ccc2cc(C(=O)N3CCn4cc(C(=O)NO)cc4C3)ccc21`, the IC50 [1] was 85 nM, the Ratio IC50 (HeLa) was 35 and the IC50 [3] was 140 nM. It also gave an inhibition [2] of under 20%.
